Laboratory results from patent publication US4888353A, “Carboxamides useful as antiemetic or antipsychotic agents” (Erbamont, Inc., priority 1986, dated 1989).
Read-outs that look alike come from different tables or passages of the source.

Tests used:
[1] = test system: apomorphine induced climbing behavior; assay: Antipsychotic screen: apomorphine induced climbing behavior; type: in vivo; conditions: mouse, apomorphine 1 mg/kg, observed 20 minutes after; for ED50: 20 min, read-out: Approx. 50% ED, apomorphine climbing
Experimental: The effect of each of the benzofurancarboxamides shown in Table VIII below on apomorphine induced climbing behavior was tested under the conditions described by Costetin et al. "Rapid and Dissociated Changes in Sensitivities of Different Dopamine Receptors in Mouse Brain," Nature, 257, 405 (1975). Each mouse was administered from 0.1 to 50 mg/kg of test compound and antagonism was observed 20 minutes after injection of 1 mg/kg apomorphine induced climbing behavior.

apomorphine emesis = assay: Antiemetic screen: Apomorphine Emesis (Dog); type: in vivo, Beagle dogs; conditions: s.c., apomorphine HCl 0.1 mg/kg sc one hour after test compound, 2 dogs; for ED100: Canis lupus familiaris, sc, 1 h, read-out: 100% Effect Dosage level (dosage at which both animals were protected from apomorphine emesis)
Experimental: Each of the test compounds shown in Table VIII was administered subcutaneously to two Beagle dogs at dosage levels of 0.05, 0.1, 1.0 and 10.0 mg/kg. One hour following administration of the test compound, each animal received 0.1 mg/kg, sc, of apomorphine HCl. Apomorphine consistently evokes an immediate emetic response through direct dopaminergic interaction at the medullary chemoreceptor trigger zone (CTZ). Antiemetic compounds which act at the CTZ and/or the midbrain vomiting center will block this effect. If both animals receiving a particular treatment are protected, (i.e., no emetic response within one hour after apomorphine), the test compound is considered active.

dopamine receptors = conditions: cited from earlier work
[2] = ip, i.p. (marked in cell; head prints s.c.)
[3] = oral (marked in cell; head prints s.c.)

In the case of `CCN1CCCC1CNC(=O)c1cc(Br)cc2ccoc12` (centres unmarked), the ED50 [1, 2] is reported as roughly 0.5 mg/kg and the ED100 (apomorphine emesis) is reported as 0.1 mg/kg.
Work on `O=C(NC1CCN(Cc2ccccc2)C1)c1cc(Br)cc2ccoc12` (centres unmarked) yielded an ED50 [1, 2] of roughly 30 mg/kg.
Compound `CCN1CCCC1CNC(=O)c1cccc2cc(C)oc12` (centres unmarked) [drawing 97 R = CH3] has an ED50 [1, 2] of roughly 3 mg/kg and an ED100 (apomorphine emesis) of 10 mg/kg.
Work on `CCN1CCCC1CNC(=O)c1cccc2ccoc12` (centres unmarked) [drawing 97 R = H] yielded an ED50 [1, 2] of roughly 12 mg/kg and an ED100 (apomorphine emesis) of 10 mg/kg.
For `CCN1CCCC1CNC(=O)c1cc(Br)cc2c1OCC2` (centres unmarked) [drawing 98 R = Br], the ED50 [1, 3] was roughly 15 mg/kg and the ED100 (apomorphine emesis) was 1 mg/kg.
With `CCN1CCCC1CNC(=O)c1cc(C)cc2c1OCC2.Cl` (centres unmarked) [drawing 98 R = CH3, N-(1-ethyl-2-pyrrolidinylmethyl)-5-methyl-2,3-dihydrobenzo[b]furan-7-carboxamide hydrochloride] the ED50 [1, 2] was roughly 3 mg/kg and the ED100 (apomorphine emesis) was 0.1 mg/kg.
`CCN1CCCC1CNC(=O)c1cc(Cl)cc2c1OCC2` (centres unmarked) [drawing 98 R = Cl] showed an ED50 [1, 3] of roughly 15 mg/kg, an ED50 [1, 2] of roughly 5 mg/kg and an ED100 (apomorphine emesis) of 1 mg/kg.
Work on `CCN1CCCC1CNC(=O)c1cccc2c1OCC2` (centres unmarked) [drawing 98 R = H] yielded an ED50 [1, 2] of roughly 20 mg/kg and an ED100 (apomorphine emesis) of 1 mg/kg.
For `CCN1CCCC1CNC(=O)c1cc(N)cc2c1OCC2.O=C(O)/C=C/C(=O)O` (centres unmarked) [drawing 98 R = NH2, 5-amino-N-(1-ethyl-2-pyrrolidinylmethyl)-2,3-dihydrobenzo[b]furan-7-carboxamide fumarate], the ED50 [1, 3] was roughly 20 mg/kg and the ED50 [1, 2] was roughly 25 mg/kg.
For `CCN1CCCC1CNC(=O)c1cc(NC(C)=O)cc2c1OCC2.O=C(O)/C=C/C(=O)O` (centres unmarked) [drawing 98 R = NHCOCH3, 5-acetamido-N-(1-ethyl-2-pyrrolidinylmethyl)-2,3-dihydrobenzo[b]furan-7-carboxamide fumarate], the ED50 [1, 2] was roughly 50 mg/kg.
With `CCN1CCCC1CNC(=O)c1cc(NS(C)(=O)=O)cc2c1OCC2` (centres unmarked) [drawing 98 R = NHSO2 CH3, N-(1-ethyl-2-pyrrolidinylmethyl)-5-methanesulfonamido-2,3-dihydrobenzo[b]furan-7-carboxamide] the ED50 [1, 3] was roughly 50 mg/kg and the ED100 (apomorphine emesis) was 1 mg/kg.
Work on `CCN1CCCC1CNC(=O)c1cc([N+](=O)[O-])cc2c1OCC2` (centres unmarked) [drawing 98 R = NO2, N-(1-ethyl-2-pyrrolidinylmethyl)-5-nitro-2,3-dihydrobenzo[b]furan-7-carboxamide] yielded an ED50 [1, 3] of roughly 15 mg/kg, an ED50 [1, 2] of roughly 20 mg/kg and an ED100 (apomorphine emesis) of 1 mg/kg.
With `CCN1CCCC1CNC(=O)c1cc(Br)cc2c1OC(C)C2` (centres unmarked) [drawing 99 R = Br R' = H] the ED50 [1, 2] was roughly 2 mg/kg and the ED100 (apomorphine emesis) was 0.005 mg/kg.
In the case of `CCN1CCCC1CNC(=O)c1cc(Cl)c(Cl)c2c1OC(C)C2` (centres unmarked) [drawing 99 R = Cl R' = Cl], the ED50 [1, 3] is reported as roughly 10 mg/kg.
Work on `CCN1CCCC1CNC(=O)c1ccc(Cl)c2c1OC(C)C2.O=C(O)/C=C/C(=O)O` (centres unmarked) [drawing 99 R = H R' = Cl, 4-chloro-N-(1-ethyl-2-pyrrolidinylmethyl)-2-methyl-2,3-dihydrobenzo[b]furan-7-carboxamide fumarate] yielded an ED50 [1, 3] of roughly 40 mg/kg and an ED50 [1, 2] of roughly 25 mg/kg.
For `CCN1CCCC1CNC(=O)c1cccc2c1OC(C)C2` (centres unmarked) [drawing 99 R = H R' = H], the ED50 [1, 2] was roughly 20 mg/kg and the “100% Effect Dosage level (dosage at which both animals were protected from apomorphine emesis)” value (apomorphine emesis) was 0.05 mg/kg.
Work on `CCN1CCCC1CNC(=O)c1ccc(OC)c2c1OC(C)C2` (centres unmarked) [drawing 99 R = H R' = OCH3] yielded an ED50 [1, 3] of roughly 25 mg/kg.
`CCN1CCCC1CNC(=O)c1cc(OC)cc2c1OC(C)C2` (centres unmarked) [drawing 99 R = OCH3 R' = H] showed an ED50 [1, 3] of roughly 1 mg/kg, an ED50 [1, 2] of roughly 25 mg/kg and an ED100 (apomorphine emesis) of 0.1 mg/kg.
`CCN1CCCC1CNC(=O)c1cc(Cl)cc2ccoc12.O=C(O)/C=C/C(=O)O` (centres unmarked) [drawing 105 R = Cl R' = H, 5-chloro-N-(1-ethyl-2-pyrrolidinylmethyl)benzo[b]furan-7-carboxamide fumarate] showed an ED50 [1, 3] of roughly 5 mg/kg and an ED100 (apomorphine emesis) of 0.1 mg/kg.
Compound `CCN1CCCC1CNC(=O)c1cc(F)cc2ccoc12` (centres unmarked) [drawing 105 R = F R' = H] has an ED100 (apomorphine emesis) of 1 mg/kg.
With `CCN1CCCC1CNC(=O)c1cccc2c1OC(C)C2` (centres unmarked) [drawing 109 R1 = H,R2 = CH3] the “Approx. 50% ED, apomorphine climbing” value ([1]; i.p. (marked in cell; head prints s.c.)) was roughly 20 mg/kg and the “100% Effect Dosage level (dosage at which both animals were protected from apomorphine emesis)” value (apomorphine emesis) was 0.85 mg/kg.
Compound `CCN1CCCC1CNC(=O)c1cccc2c1OC(C)(C)C2` (centres unmarked) [drawing 109 R1 = R2 = CH3] has an ED50 [1, 2] of roughly 100 mg/kg and an ED100 (apomorphine emesis) of 10 mg/kg.
For `CCN(CC)CCNC(=O)c1cc(Cl)c(N)cc1OC` [metoclopramide, 4-amino-5-chloro-N-[(2-diethylamino)ethyl]-2-methoxybenzamide], the “release of prolactin (side effect)” value (dopamine receptors) is given as “increase in the release of prolactin”.
For `CCN1CCCC1CNC(=O)c1cc(S(N)(=O)=O)ccc1OC` (centres unmarked) [sulpiride, 2-methoxy-N-(1-ethyl-2-pyrrolidinylmethyl)-5-sulfamoyl benzamide], the “release of prolactin (side effect)” value (dopamine receptors) is listed as “increase in the release of prolactin”.
